According to PMC7583961, “Development and Validation of an LC-MS/MS Assay to Quantitate 2′,4′,6′-Trihydroxyacetophenone in Rat and Dog Plasma and its Application to a Pharmacokinetic Study” (Molecules, 2020):

Key:
[1] = Stability of THAP in dog plasma; format: in vitro ADME; settings: for Plasma Stability (Mean %) Long-Term (−70 °C): 32 days; for Plasma Stability (Mean %) Long-Term (−70 °C) / Plasma Stability (Mean %) 4 °C (7 h) / Plasma Stability (Mean %) Autosampler (44 h, 10 °C) / Plasma Stability (Mean %) Freeze-Thaw Stability (5 Cycles) / Plasma Stability (Mean %) Room Temperature (7 h) / Plasma Stability (Mean %) −70 °C (7 h): n = 3
Experimental: (§1) The stability of THAP in rat and dog plasma was examined under the following conditions at concentrations of 0.3, 25, and 80 µg/mL (n = 3): freeze-thaw stability after five freeze-thaw cycles at −70 °C; short-term stability at room temperature, 4 °C, and −70 °C for 7 h; autosampler stability at 10 °C for 44 h; and long-term stability at −70 °C for 56 days and 32 days in rat and dog plasma, respectively. The stability of the stock solution at low (0.3 µg/mL) and high (80 µg/mL) QC concentrations (n = 3) stored at room temperature for 7 h was also tested by comparing their peak areas to those of freshly prepared stock solutions.

[2] = Stability of THAP stock solution at room temperature; format: physicochemical; settings: room temperature 7 h, n = 3
Experimental: as §1

[3] = Pharmacokinetic study of orally administered THAP in rats (LC-MS/MS of plasma, noncompartmental analysis); format: in vivo, Sprague Dawley rats; settings: for AUC(0-t) / Cmax / Tmax / half-life: plasma, rat, mean ± SD, n = 5
Experimental: (§2) Healthy Sprague Dawley rats (n = 15, mean ± SD weight 261.4 ± 6.8 g) and beagle dogs (n = 10, mean ± SD weight 9.85 ± 0.60 kg) were purchased from Orient Bio Inc. (Seongnam, Korea). The animals were kept in a light-controlled room at 22 ± 2 °C with relative humidity of 55 ± 5% in the Animal Center of Korea Preclinical Center (Gyeonggi-do, Korea). The pharmacokinetic study protocols (KPC-E2019099 for rats and KPC-M2019046 for dogs) were approved by the Animal Care and Use Committee of the Korea Preclinical Center (Gyeonggi-do, Korea).
(§3) Chromatographic separation was performed using an Agilent 1200 Series HPLC (Agilent Technologies, Inc., Palo Alto, CA, USA) system with a Gemini C18 column (50 × 2.0 mm, 3 µm, Phenomenex, Torrance, CA, USA) protected by a guard column at 40 °C. The mobile phase composed of 10 mM ammonium formate in water and methanol (10:90, v/v) was isocratically pumped into the HPLC system at a flow rate of 0.2 mL/min with a total run time of 2.5 min. The column was eluted into an API 4000 triple quadrupole mass spectrometer (Applied Biosystems, Framingham, Massachusetts, USA), operating in the multiple reaction monitoring (MRM) mode with a negative ion electrospray source. The optimized instrument settings were as follows: curtain gas flow of 20 L/h; collision gas flow of 6 L/h; ion source gas 1 pressure of 50 psi; ion source gas 2 pressure of 60 psi; ion spray voltage of −4500 V; and temperature of 500 °C. The precursor ions of THAP and IS were generated using declustering potentials of −100 and −75 V, respectively, and they were fragmented at a collision energy of −28 and −24 eV, respectively. The molecular mass transitions from precursor to product ion were optimized at m/z 166.89 > 82.8 for THAP and at 152.89 > 82.8 for IS. Data were processed using Analyst® program (Ver. 1.6.2, AB SCIEX, Toronto, ON, Canada).
(§4) Plasma samples were stored in a deep freezer at −70 °C and thawed at room temperature. An aliquot of each plasma sample (10 μL) was transferred to 1.75 mL microtubes (Axygen Scientific, Inc., California, USA). In each microtube, 20 μL of IS (2 μg/mL) and 500 μL of 100% cold acetonitrile were added and then vortexed for 10 min. After centrifugation at 20,800× g for 15 min, 50 μL of the supernatant was pipetted into a 2.0 mL microtube and diluted with 350 μL of 50% acetonitrile (v/v). After being vortexed for 10 min and centrifuged at 20,800× g at 4 °C for 10 min, a 2 μL aliquot was injected into the LC-MS/MS system for quantitation.
(§5) Male rats orally received a single dose of THAP (250, 500, or 750 mg/kg) dissolved in deionized water containing 2% CMC by gavages. Serial blood samples (0.22 mL each) were collected via the right jugular vein immediately before (0 h) and at 0.5, 1, 2, 3, 4, 6, 9, 12, 24, and 48 h (n = 5 per each sample time) post-dosing. Male dogs received a single oral dose of THAP tablet (500 mg) as either an immediate-release tablet (Group 1) or a sustained-release tablet (Group 2) (Table 5). Blood samples (1.0 mL) were drawn from a median vein of a forelimb at the following time points after the administration of THAP: 0.5, 1, 1.5, 2, 3, 4, 6, 8, 12, and 24 h (n = 5 per each sample time). After sampling blood from the animals, the cannula was flushed with an equal volume of heparinized saline solution (50 U/mL) to prevent coagulation and to replace the blood loss. Heparin was used as an anticoagulant throughout the study procedure. Plasma was harvested by centrifugation at 4 °C, 1700× g for 10 min and then stored at −70 °C before quantification. Noncompartmental analysis was performed to calculate the AUClast and T1/2 of THAP using WinNonlin version 8.1 (Pharsight Corporation, Mountain View, CA). The Cmax and Tmax of THAP were determined based on the individual plasma THAP concentration–time profiles.

[4] = Pharmacokinetic study of oral THAP IR or SR tablets in dogs (LC-MS/MS of plasma, noncompartmental analysis); format: in vivo; settings: male, beagle; for AUC(0-t) / Cmax / Tmax / half-life: dog, plasma, po, 500 mg, mean ± SD, n = 5
Experimental: as §2, §3, §4, §5

[5] = Stability of THAP in rat plasma; format: in vitro ADME; settings: for Plasma Stability (Mean %) Long-Term (−70 °C): 56 days; for Plasma Stability (Mean %) Long-Term (−70 °C) / Plasma Stability (Mean %) 4 °C (7 h) / Plasma Stability (Mean %) Autosampler (44 h, 10 °C) / Plasma Stability (Mean %) Freeze-Thaw Stability (5 Cycles) / Plasma Stability (Mean %) Room Temperature (7 h) / Plasma Stability (Mean %) −70 °C (7 h): n = 3
Experimental: as §1

[6] = range over 0.3, 25 and 80 µg/mL
[7] = male, Sprague Dawley, oral 250 mg/kg aqueous solution (Group 1)
[8] = male, Sprague Dawley, oral 500 mg/kg aqueous solution (Group 2)
[9] = male, Sprague Dawley, oral 750 mg/kg aqueous solution (Group 3)
[10] = oral 500 mg THAP immediate-release tablet (Group 1)
[11] = oral 500 mg THAP sustained-release tablet (Group 2)

Question: What does the source list for `CC(=O)c1c(O)cc(O)cc1O` [THAP, 2′,4′,6′-trihydroxyacetophenone]?
Answer: Plasma Stability (Mean %) Long-Term (−70 °C) ([1]; nominal 0.3 µg/mL): 102.89%; Plasma Stability (Mean %) 4 °C (7 h) ([1]; nominal 0.3 µg/mL): 111.89%; Plasma Stability (Mean %) Autosampler (44 h, 10 °C) ([1]; nominal 0.3 µg/mL): 99.67%; Plasma Stability (Mean %) Freeze-Thaw Stability (5 Cycles) ([1]; nominal 0.3 µg/mL): 101.33%; Plasma Stability (Mean %) Room Temperature (7 h) ([1]; nominal 0.3 µg/mL): 109.89%; Plasma Stability (Mean %) −70 °C (7 h) ([1]; nominal 0.3 µg/mL): 109.56%; Plasma Stability (Mean %) Long-Term (−70 °C) ([1]; nominal 25 µg/mL): 103.95%; Plasma Stability (Mean %) 4 °C (7 h) ([1]; nominal 25 µg/mL): 105.57%; Plasma Stability (Mean %) Autosampler (44 h, 10 °C) ([1]; nominal 25 µg/mL): 106.75%; Plasma Stability (Mean %) Freeze-Thaw Stability (5 Cycles) ([1]; nominal 25 µg/mL): 105.31%; Plasma Stability (Mean %) Room Temperature (7 h) ([1]; nominal 25 µg/mL): 106.66%; Plasma Stability (Mean %) −70 °C (7 h) ([1]; nominal 25 µg/mL): 105.88%; Plasma Stability (Mean %) Long-Term (−70 °C) ([1]; nominal 80 µg/mL): 99.45%; Plasma Stability (Mean %) 4 °C (7 h) ([1]; nominal 80 µg/mL): 98.87%; Plasma Stability (Mean %) Autosampler (44 h, 10 °C) ([1]; nominal 80 µg/mL): 97.58%; Plasma Stability (Mean %) Freeze-Thaw Stability (5 Cycles) ([1]; nominal 80 µg/mL): 98.41%; Plasma Stability (Mean %) Room Temperature (7 h) ([1]; nominal 80 µg/mL): 98.17%; Plasma Stability (Mean %) −70 °C (7 h) ([1]; nominal 80 µg/mL): 97.32%; long-term stability at −70 °C for 32 days [1, 6]: 99.45–103.95%; stability in the autosampler at 10 °C for 44 h [1, 6]: 97.58–106.75%; stability over five freeze-thaw cycles [1, 6]: 98.41–105.31%; mean percentage peak area of stock solution vs freshly prepared stock solution ([2]; 0.3 µg/mL): 102.15%; mean percentage peak area of stock solution vs freshly prepared stock solution ([2]; 80 µg/mL): 100.92%; AUC(0-t) [3, 7]: 80.9 ± 11.8 µg·h/mL; Cmax [3, 7]: 64200 ± 16300 ng/mL; Tmax [3, 7]: 0.5 h; half-life [3, 7]: 11.3 ± 0.9 h; AUC(0-t) [3, 8]: 150 ± 35.8 µg·h/mL; Cmax [3, 8]: 81300 ± 32300 ng/mL; Tmax [3, 8]: 0.5 h; half-life [3, 8]: 8.3 ± 1.2 h; AUC(0-t) [3, 9]: 302 ± 113 µg·h/mL; Cmax [3, 9]: 147000 ± 44600 ng/mL; Tmax [3, 9]: 0.5 h; half-life [3, 9]: 8 ± 1.5 h; concentration at 12 h ([3]; male, Sprague Dawley, rat plasma sample of R06, 12 h after oral administration of THAP 500 mg/kg, read-out: measured plasma concentration of THAP): 374 ng/mL; plasma THAP concentrations close to the peak concentration ([3]; rats, THAP dose of 500 mg/kg and 750 mg/kg, above ULOQ): greater than 100 µg/mL; AUC(0-t) [4, 10]: 89.9 ± 32.8 µg·h/mL; Cmax [4, 10]: 24500 ± 5000 ng/mL; Tmax [4, 10]: 1 ± 1.1 h; half-life [4, 10]: 6.1 ± 4.6 h; AUC(0-t) [4, 11]: 130 ± 49.4 µg·h/mL; Cmax [4, 11]: 18800 ± 8500 ng/mL; Tmax [4, 11]: 6 ± 1.6 h; half-life [4, 11]: 6.4 ± 1.6 h; concentration at 24 h ([4]; dog plasma sample of R05, 24 h after oral administration of THAP 500 mg immediate-release tablet, read-out: measured plasma concentration of THAP): 302 ng/mL; Plasma Stability (Mean %) Long-Term (−70 °C) ([5]; nominal 0.3 µg/mL): 111.67%; Plasma Stability (Mean %) 4 °C (7 h) ([5]; nominal 0.3 µg/mL): 99.22%; Plasma Stability (Mean %) Autosampler (44 h, 10 °C) ([5]; nominal 0.3 µg/mL): 105.00%; Plasma Stability (Mean %) Freeze-Thaw Stability (5 Cycles) ([5]; nominal 0.3 µg/mL): 101.00%; Plasma Stability (Mean %) Room Temperature (7 h) ([5]; nominal 0.3 µg/mL): 98.22%; Plasma Stability (Mean %) −70 °C (7 h) ([5]; nominal 0.3 µg/mL): 98.11%; Plasma Stability (Mean %) Long-Term (−70 °C) ([5]; nominal 25 µg/mL): 104.15%; Plasma Stability (Mean %) 4 °C (7 h) ([5]; nominal 25 µg/mL): 106.91%; Plasma Stability (Mean %) Autosampler (44 h, 10 °C) ([5]; nominal 25 µg/mL): 104.80%; Plasma Stability (Mean %) Freeze-Thaw Stability (5 Cycles) ([5]; nominal 25 µg/mL): 102.84%; Plasma Stability (Mean %) Room Temperature (7 h) ([5]; nominal 25 µg/mL): 101.62%; Plasma Stability (Mean %) −70 °C (7 h) ([5]; nominal 25 µg/mL): 109.87%; Plasma Stability (Mean %) Long-Term (−70 °C) ([5]; nominal 80 µg/mL): 99.39%; Plasma Stability (Mean %) 4 °C (7 h) ([5]; nominal 80 µg/mL): 100.98%; Plasma Stability (Mean %) Autosampler (44 h, 10 °C) ([5]; nominal 80 µg/mL): 100.58%; Plasma Stability (Mean %) Freeze-Thaw Stability (5 Cycles) ([5]; nominal 80 µg/mL): 99.62%; Plasma Stability (Mean %) Room Temperature (7 h) ([5]; nominal 80 µg/mL): 100.47%; Plasma Stability (Mean %) −70 °C (7 h) ([5]; nominal 80 µg/mL): 101.61%; long-term stability at −70 °C for 56 days [5, 6]: 99.39–111.67%; stability in the autosampler at 10 °C for 44 h [5, 6]: 100.58–105.00%; stability over five freeze-thaw cycles [5, 6]: 99.62–102.84%
